Measurements from PMC8453901, “GLPG1205, a GPR84 Modulator: Safety, Pharmacokinetics, and Pharmacodynamics in Healthy Subjects” (Clinical Pharmacology in Drug Development, 2021).
Entries after “also recorded” stand apart in the source; their conditions may differ. Where two headings read alike, the source gives them in different places.

Experiments:
[1] = tested on: CYP2C9; design: method as in data on file at Galapagos, 8, 9; conditions: 100 mg once daily, healthy male subjects; ref data on file at Galapagos, 8, 9; cited from earlier work
[2] = tested on: CYP2C8; design: method as in data on file at Galapagos; conditions: in vitro; ref data on file at Galapagos; cited from earlier work
[3] = tested on: CYP2C9; design: method as in data on file at Galapagos; conditions: in vitro; ref data on file at Galapagos; cited from earlier work
[4] = design: method as in PMID 32902984; conditions: rats, up to 100 mg/kg/d; cited from earlier work
[5] = Study 2 part 1: effect of aging on pharmacokinetics, 50 mg once daily for 14 days; assay type: in vivo, human; conditions: for Tmax / Cmax / AUC(0-t) / concentration at 24 h / AUC(0-inf) / half-life: male, human, plasma, oral, 50 mg; for AUC(0-t): read-out: AUC0–24h; for concentration at 24 h: read-out: C24h; for half-life: read-out: t1/2,λz (converted)
Method: During study 2, GLPG1205 50 mg or matching placebo was administered as capsules in the morning 30 minutes after the start of a standard breakfast. Subjects were kept in‐house from the evening of day –1 to ≈26 hours after the first dose (day 2), and from the evening of day 13 until day 15. Administration of the study drug was performed daily at the clinical pharmacology unit. Subjects returned for a follow‐up visit at day 35.
In part 1, 24 healthy male subjects were matched into 3 cohorts based on body weight: Cohort A comprised 8 subjects aged 65–74 years, inclusive; cohort B comprised 8 subjects aged ≥75 years (1:1 weight matched with cohort A subjects [± 5 kg]); and cohort C comprised 8 subjects aged 18 to 50 years, inclusive (1:1 weight matched with cohort A subjects [± 5 kg]). All cohorts received GLPG1205 50 mg once daily or matching placebo, in a 3:1 ratio, for 14 days. In the open‐label second part of study 2, 8 subjects (cohort D) aged 65 to 74 years, inclusive, were included to characterize the PK profile after a loading dose of GLPG1205 250 mg on day 1 followed by multiple doses of GLPG1205 50 mg once daily from day 2 to day 14.
In the SAD part of study 1, blood samples (2 mL) for PK assessments were obtained before dosing and at multiple time points on the day of study drug administration (before dosing and 0.5, 1, 2, 4, 6, 8, and 12 hours after dosing) and at 24, 48, and 72 hours after dosing. The predose sample for the next dose level was also used in PK analysis (168 hours after dosing). […] In the MAD part of study 1, blood samples (2 mL) were obtained on days 1, 2, 4, 5, 6, 8, 10, 12, 14, 15, 16, 17, and 18 and at follow‐up (approximately 7 to 10 days after the last dose). These PK blood samples were taken after dosing (1, 2, 4, 6, 8, 12, and 24 hours) on day 1; before dosing on days 4, 6, 8, and 10; and after dosing (1, 2, 4, 6, 8, 12, 24, 72, and 96 hours) on day 14. The following additional PK blood samples were also taken: cohort C, before dosing on day 5; and cohorts D and E, before dosing on day 12. Urine samples were obtained from fractions collected over 6‐ or 12‐hour periods after dosing on days –1, 1, 2, 13, 14, and 15; samples obtained on days –1 and 13 were for cytochrome P450 (CYP) induction analysis only. In study 2, blood samples (2 mL) were obtained on days 1, 2, 5, 7, 10, 14, 15, 17, and 20 and at follow‐up (approximately 21 days after end of study medication administration). Blood samples were taken before dosing and at 1, 2, 4, 6, 8, 12, and 24 hours after drug administration on days 1 and 14 and before dosing on other sampling days.
GLPG1205 plasma concentrations were determined using a validated liquid chromatography with tandem mass spectrometry method. After a protein precipitation with methanol, a chromatographic separation was performed on a Kinetex C18 column (50×3.0 mm, 2.6 μm; Phenomenex, Torrance, California) set at 40°C by using a Nexera high‐performance liquid chromatography (HPLC) system (Shimadzu, Kyoto, Japan) or an Infinity HPLC system (Agilent Technologies, Diegem, Belgium) in isocratic elution mode. A QTRAP6500, QTRAP4000, or API4000 mass spectrometer (AB Sciex, Nieuwerkerk aan den Ijssel, The Netherlands) equipped with a TurboIonSpray probe operated in the multiple reaction monitoring in positive mode was used for quantification. The calibration curves in plasma were linear over the range of 1 to 1000 ng/mL with 1/x^2 as weighting factor. The limit of quantification of the assay in the plasma samples was set at 1 ng/mL.
PK calculations were performed using Phoenix WinNonlin 6.2 (Pharsight Corporation, Palo Alto, California). […] AUC0‐inf was calculated from the area under the plasma concentration‐time curve from time 0 until the time corresponding with the last observed quantifiable concentration + Ct/λz, where Ct was the last observed quantifiable concentration and λz the first‐order terminal rate constant. […]

[6] = design: method as in data on file at Galapagos, 17; conditions: separate study; ref data on file at Galapagos, 17; cited from earlier work
[7] = 50 mg once daily, cohort A 65-74 y, day 14, mean (CV%), N = 4
[8] = 50 mg once daily, cohort A 65-74 y, day 1, mean (CV%)
[9] = 50 mg once daily, cohort A 65-74 y, day 14, mean (CV%)
[10] = 50 mg once daily, cohort B ≥75 y, day 1, mean (CV%)
[11] = 50 mg once daily, cohort B ≥75 y, day 14, mean (CV%)
[12] = 50 mg once daily, cohort C 18-50 y, day 1, mean (CV%)
[13] = 50 mg once daily, cohort C 18-50 y, day 14, mean (CV%)

Which results are given for `O=c1nc(OC[C@@H]2COCCO2)cc2n1CCc1cc(C#CC3CC3)ccc1-2` [GLPG1205, 9‐cyclopropylethynyl‐2‐((S)‐1‐[1,4]dioxan‐2‐ylmethoxy)‐6,7‐dihydropyrimido[6,1‐a]isoquinolin‐4‐one]?
effect on exposure of CYP2C9 [1]: did not affect the exposure; inhibition of CYP2C8 [2]: weak inhibition; inhibition of CYP2C9 [3]: weak inhibition; dose-proportionality of exposure [4]: increased dose‐proportionally; effect of age on GLPG1205 exposure ([5]; 50 mg once daily for 14 days, 3 age groups): Age did not affect GLPG1205 exposure; also recorded: age has no effect on GLPG1205 exposure; also recorded: Age had no effect on the PK; Rac (accumulation ratio) ([5]; 50 mg once daily, cohort A 65-74 y, AUC0-24h day 14/day 1 (Table 5A)): 6.16 (0.74); AUC0–inf [5, 7]: 338 (26.0) ^N = 4 μg • h/mL; Rac (accumulation ratio) ([5]; 50 mg once daily, cohort B ≥75 y, AUC0-24h day 14/day 1): 5.77 (1.34); Rac (accumulation ratio) ([5]; 50 mg once daily, cohort C 18-50 y, AUC0-24h day 14/day 1): 5.02 (1.66); Tmax ([5]; 50 mg once daily for 14 days, all 3 age groups): 2 to 3 h; Cmax [5, 8]: 557 ng/mL; AUC(0-t) [5, 8]: 8920 ng·h/mL; concentration at 24 h [5, 8]: 334 ng/mL; Cmax [5, 9]: 2750 ng/mL; AUC(0-inf) [5, 7]: 338000 ng·h/mL; AUC(0-t) [5, 9]: 54200 ng·h/mL; concentration at 24 h [5, 9]: 2440 ng/mL; half-life [5, 9]: 71.9 h; Cmax [5, 10]: 440 ng/mL; AUC(0-t) [5, 10]: 6900 ng·h/mL; concentration at 24 h [5, 10]: 290 ng/mL; Cmax [5, 11]: 1960 ng/mL; AUC(0-inf) ([5]; 50 mg once daily, cohort B ≥75 y, day 14, mean (CV%), N = 4): 236000 ng·h/mL; AUC(0-t) [5, 11]: 39300 ng·h/mL; concentration at 24 h [5, 11]: 1820 ng/mL; half-life [5, 11]: 64.5 h; Tmax ([5]; 50 mg once daily, cohort B ≥75 y, day 14, median (minimum-maximum)): 3 h; Cmax [5, 12]: 476 ng/mL; AUC(0-t) [5, 12]: 7740 ng·h/mL; concentration at 24 h [5, 12]: 301 ng/mL; Cmax [5, 13]: 1950 ng/mL; AUC(0-inf) ([5]; 50 mg once daily, cohort C 18-50 y, day 14, mean (CV%), N = 5): 194000 ng·h/mL; AUC(0-t) [5, 13]: 37700 ng·h/mL; concentration at 24 h [5, 13]: 1590 ng/mL; half-life [5, 13]: 56 h; food effect on GLPG1205 exposure [6]: no food effect
